For one substance, IC50 results are on record in PMC10042146, “SARS-CoV-2 M^pro Protease Variants of Concern Display Altered Viral Substrate and Cell Host Target Galectin-8 Processing but Retain Sensitivity toward Antivirals” (ACS Central Science, 2023).

The assay concerns the target T1, SARS-CoV-2 M^pro (wild type) (Severe acute respiratory syndrome coronavirus 2, UniProt P0DTD1).
T1 construct: gene rep; mature nsp5 cut from replicase polyprotein 1ab (also pp1a); homodimer; purification details only in supplement
In kind it is biochemical.

The term IC50 denotes the concentration that gives 50% inhibition. Consider AVI-8053, for which it took 19 nM to reach half-maximal inhibition (IC50).
